Assay results taken from patent US12319655B2, “RAF kinase inhibitors and methods of use thereof” (Deciphera Pharmaceuticals, LLC, priority 2021, dated 2025).

Tests used:
[1] = target: B-Raf kinase (SEQ. ID NO: 2) (Homo sapiens (Human), UniProt P15056); assay: Biochemical Assay for B-Raf (1); details: Table J, biochemical assay (1); read-out: BRAF (1)
Procedure, shortened: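 Continuous PK/LDH-coupled NADH oxidation assay, A340 read for 6 h at 30° C., with 0.13 nM B-Raf, 30.1 nM MEK substrate and 1 mM ATP in Tris pH 7.5, MgCl2, DTT, detergents, 1% DMSO. Rate taken from 4–5 h window; percent inhibition vs no-compound and known-inhibitor controls; four-parameter fit gives IC50.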

[2] = target: B-Raf (V600E) (SEQ. ID NO: 4) kinase (Homo sapiens (Human), UniProt P15056, V600E); assay: Biochemical Assay for B-Raf (V600E) (1); details: Table J, BRAF V600E, biochemical assay (1); read-out: BRAF VE (1)
Sequence of B-Raf (V600E) (SEQ. ID NO: 4) kinase (P15056 416-766 V600E): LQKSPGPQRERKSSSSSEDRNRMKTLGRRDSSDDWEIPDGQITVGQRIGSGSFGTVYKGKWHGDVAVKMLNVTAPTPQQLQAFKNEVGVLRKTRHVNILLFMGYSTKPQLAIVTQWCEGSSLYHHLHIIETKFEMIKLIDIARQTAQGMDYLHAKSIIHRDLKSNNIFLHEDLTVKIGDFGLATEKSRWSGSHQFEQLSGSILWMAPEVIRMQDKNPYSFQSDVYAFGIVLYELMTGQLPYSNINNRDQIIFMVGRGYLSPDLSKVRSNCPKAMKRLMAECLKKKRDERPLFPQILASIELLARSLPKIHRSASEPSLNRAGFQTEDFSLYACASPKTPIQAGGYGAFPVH
Procedure, shortened: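 Coupled pyruvate kinase/lactate dehydrogenase assay: 0.03 nM B-Raf V600E, 30.1 nM MEK, 1 mM ATP, pH 7.5 Tris/MgCl2 buffer, 1% DMSO. NADH oxidation followed at 340 nm for 6 h at 30 °C; rate from 3–4 h converted to percent inhibition, IC50 by four-parameter fit.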

WM3928 cells = assay: WM3928 Cell Proliferation Assay (1); assay type: cell-based
Procedure, shortened: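 IC50 was derived from resazurin fluorescence (ex 540, em 600 nm) after a 6–7 h dye incubation. Before that, cells had 67–72 h of compound exposure at 37 °C, 5% CO2.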

H2405 cells = assay: H2405 Cell Proliferation Assay (2); assay type: cell-based; details: Homo sapiens, NCI-H2405
Procedure: H2405 Cell Proliferation Assay (2)
H2405 cells (catalog #CRL-5994) are obtained from the American Type Culture Collect (ATTC, Manassas, VA). Briefly, cells were grown in RPMI 1640 supplemented with 5% characterized fetal bovine serum (Invitrogen, Carlsbad, CA) and 1% Penicillin/Streptomycin/L-Glutamine at 37° C., 5% CO2, and 95% humidity. Cells are expanded until reaching 70-95% confluency at which point they are sub-cultured or harvested for assay use. A serial dilution of test compound is dispensed into a 384-well black clear bottom plate in triplicate. Seven hundred fifty cells are added per well in 50 μL complete growth medium in the 384-well plate. Plates are incubated for 67-72 h at 37° C., 5% CO2, and 95% humidity. At the end of the incubation, 10 μL of a 440 μM solution of resazurin (Sigma, St. Louis, MO) in PBS is added to each well of the plate and plates are incubated for an additional 5-6 h at 37° C., 5% CO2, and 95% humidity. Plates are read on a Synergy2 or equivalent reader (Biotek, Winooski VT) using an excitation of 540 nm and an emission of 600 nm. Data is analyzed using Prism software (GraphPad, San Diego, CA) to calculate IC50 values

Sequence of B-Raf kinase (SEQ. ID NO: 2) (P15056 416-766): as the sequence (P15056 416-766 V600E) above, with E185V counted along it

IC50 [1]	IC50 [2]	IC50 (H2405 cells)	Compound	IC50 (WM3928 cells)
0.1 to 0.5 µM	≤ 0.1 µM	–	COC(=O)Nc1cc(-c2cccc(-c3cc(NC(=O)c4ccnc(C(C)(C)F)c4)cnc3C)c2)ncn1 [Example 404]	0.1 to 0.5 µM
≤ 0.1 µM	≤ 0.1 µM	–	COC(=O)Nc1cc(-c2cncc(-c3cc(NC(=O)c4ccnc(C5(C#N)CC5)c4)ccc3C)c2)ncn1 [Example 405]	≤ 0.1 µM
≤ 0.1 µM	≤ 0.1 µM	–	Cc1ncc(NC(=O)c2ccnc(C(C)(C)F)c2)cc1-c1cncc(-c2cc(NC(=O)C3CC3)ncn2)c1 [Example 406]	≤ 0.1 µM
0.5 to 1 µM	0.1 to 0.5 µM	–	Cc1ncc(NC(=O)c2ccnc(C(C)(C)C#N)c2)cc1-c1cccc(-c2cnc3ccccn23)c1 [Example 407]	1 to 10 µM
0.1 to 0.5 µM	≤ 0.1 µM	–	CNC(=O)c1cc(-c2cncc(-c3cc(NC(=O)c4ccnc(C(C)(C)F)c4)c(F)cc3C)c2)ccn1 [Example 408]	0.1 to 0.5 µM
0.1 to 0.5 µM	0.5 to 1 µM	–	COC(=O)Nc1cc(-c2cnnc(-c3cc(NC(=O)c4cn(C(C)C)nn4)ccc3C)c2)ccn1 [Example 409]	1 to 10 µM
≤ 0.1 µM	≤ 0.1 µM	–	Cc1ncc(NC(=O)c2ccnc(C(C)(C)C#N)c2)cc1-c1cncc(-c2cc(NC(=O)C3CC3)ncn2)c1 [Example 410]	≤ 0.1 µM
≤ 0.1 µM	≤ 0.1 µM	–	Cc1ccc(NC(=O)c2ccnc(C(C)(C)F)c2)cc1-c1cncc(-c2cc(N)ncn2)c1 [Example 411]	≤ 0.1 µM
≤ 0.1 µM	≤ 0.1 µM	–	Cc1ccc(NC(=O)c2cn(C(C)C)nn2)cc1-c1cncc(-c2cc(NC(=O)C3CC3)ncn2)c1 [Example 412]	≤ 0.1 µM
≤ 0.1 µM	≤ 0.1 µM	–	CNC(=O)c1cc(-c2cncc(-c3cc(NC(=O)c4ccnc(C(C)(C)F)c4)ccc3C)c2)ccn1 [Example 413]	≤ 0.1 µM
≤ 0.1 µM	≤ 0.1 µM	–	COC(=O)Nc1cc(-c2cncc(-c3cc(NC(=O)c4ccnc(C(C)(C)C#N)c4)ccc3C)c2)ncn1 [Example 414]	≤ 0.1 µM
0.5 to 1 µM	1 to 10 µM	–	COC(=O)Nc1cc(-c2cccc(-c3cc(NC(=O)Cn4cc(C(C)C)nn4)cnc3C)c2)ccn1 [Example 415]	1 to 10 µM
≤ 0.1 µM	≤ 0.1 µM	–	COC(=O)Nc1cc(-c2cc(-c3cc(NC(=O)c4ccnc(C(C)(C)F)c4)ccc3C)nc(C)n2)ccn1 [Example 416]	≤ 0.1 µM
≤ 0.1 µM	≤ 0.1 µM	–	Cc1ccc(NC(=O)c2ccnc(C(C)(C)F)c2)cc1-c1cncc(-c2ccnc(NC(=O)C3CC3)c2)c1 [Example 417]	≤ 0.1 µM
≤ 0.1 µM	≤ 0.1 µM	–	Cc1cc(F)c(NC(=O)c2ccnc(C(C)(C)C#N)c2)cc1-c1cncc(-c2ccnc(NC(=O)C3CC3)c2)c1 [Example 418]	≤ 0.1 µM
≤ 0.1 µM	≤ 0.1 µM	–	Cc1ccc(NC(=O)c2ccnc(C(C)(F)F)c2)cc1-c1cncc(-c2cc(NC(=O)C3CC3)ncn2)c1 [Example 419]	≤ 0.1 µM
≤ 0.1 µM	≤ 0.1 µM	–	Cc1ccc(NC(=O)c2ccnc(C(C)(C)C#N)c2)cc1-c1cncc(-c2cc(NC(=O)C(C)C)ncn2)c1 [Example 420]	≤ 0.1 µM
≤ 0.1 µM	≤ 0.1 µM	–	Cc1ccc(NC(=O)c2cc(C3CC3)on2)cc1-c1cncc(-c2cc(NC(=O)C3CC3)ncn2)c1 [Example 421]	≤ 0.1 µM
0.1 to 0.5 µM	≤ 0.1 µM	–	Cc1ccc(NC(=O)c2ccnc(C(C)(C)C#N)c2)cc1-c1cncc(-c2cc(N)ncn2)c1 [Example 422]	0.1 to 0.5 µM
≤ 0.1 µM	≤ 0.1 µM	–	Cc1cc(F)c(NC(=O)c2ccnc(C(C)(C)F)c2)cc1-c1cncc(-c2cc(NC(=O)C3CC3)ncn2)c1 [Example 423]	≤ 0.1 µM
≤ 0.1 µM	≤ 0.1 µM	–	Cc1cc(F)c(NC(=O)c2ccnc(C(C)(C)C#N)c2)cc1-c1cncc(-c2cc(NC(=O)C3CC3)ncn2)c1 [Example 424]	≤ 0.1 µM
≤ 0.1 µM	≤ 0.1 µM	–	COC(=O)Nc1cc(-c2cncc(-c3cc(NC(=O)c4ccnc(C(C)(C)F)c4)ccc3C)c2)ncn1 [Example 425]	≤ 0.1 µM
0.1 to 0.5 µM	≤ 0.1 µM	–	CNC(=O)c1cc(-c2nccc(-c3cc(NC(=O)c4ccnc(C(C)(C)F)c4)c(F)cc3C)n2)ccn1 [Example 427]	≤ 0.1 µM

IC50 [1]	IC50 [2]	IC50 (H2405 cells)	Compound	IC50 (WM3928 cells)
0.1 to 0.5 µM	≤ 0.1 µM	–	CNC(=O)c1cc(-c2cc(-c3cc(NC(=O)c4ccnc(C(C)(C)F)c4)ccc3C)nc(C)n2)ccn1 [Example 428]	0.1 to 0.5 µM
≤ 0.1 µM	≤ 0.1 µM	–	Cc1ccc(NC(=O)c2ccnc(C(F)F)c2)cc1-c1cncc(-c2cc(NC(=O)C3CC3)ncn2)c1 [Example 429]	≤ 0.1 µM
≤ 0.1 µM	≤ 0.1 µM	–	Cc1ccc(NC(=O)c2cnn(C3CC3)c2)cc1-c1cncc(-c2cc(NC(=O)C3CC3)ncn2)c1 [Example 430]	≤ 0.1 µM
≤ 0.1 µM	≤ 0.1 µM	–	Cc1ccc(NC(=O)c2cc(C(C)(C)C)on2)cc1-c1cncc(-c2cc(NC(=O)C3CC3)ncn2)c1 [Example 431]	≤ 0.1 µM
≤ 0.1 µM	≤ 0.1 µM	–	Cc1ccc(NC(=O)c2ccnc(C(C)(C)F)c2)cc1-c1cncc(-c2ccnc3c2CC(=O)N3)c1 [Example 432]	0.1 to 0.5 µM
≤ 0.1 µM	≤ 0.1 µM	–	Cc1ncc(NC(=O)c2ccnc(C(C)(C)F)c2)cc1-c1cncc(-c2ccnc(NC(=O)C3CC3)c2)c1 [Example 433]	≤ 0.1 µM
≤ 0.1 µM	≤ 0.1 µM	–	Cc1ccc(NC(=O)c2ccnc(C(C)C)c2)cc1-c1cncc(-c2cc(NC(=O)C3CC3)ncn2)c1 [Example 434]	≤ 0.1 µM
≤ 0.1 µM	≤ 0.1 µM	–	COC(=O)Nc1cc(-c2cncc(-c3cc(NC(=O)c4ccnc(C(C)(C)F)c4)ccc3C)c2)ccn1 [Example 435]	≤ 0.1 µM
≤ 0.1 µM	≤ 0.1 µM	–	Cc1ccc(NC(=O)c2cc(C3CC3)n(C)n2)cc1-c1nccc(-c2ccnc(NC(=O)C3CC3)c2)n1 [Example 436]	≤ 0.1 µM
0.1 to 0.5 µM	≤ 0.1 µM	–	CNC(=O)c1cc(-c2cc(-c3cc(NC(=O)c4ccnc(C(C)(C)C#N)c4)ccc3OC)ccn2)ccn1 [Example 437]	0.5 to 1 µM
≤ 0.1 µM	≤ 0.1 µM	–	COc1ccc(NC(=O)c2ccnc(C(C)(C)C#N)c2)cc1-c1cccc(-c2cc(NC(=O)C3CC3)ncn2)c1 [Example 438]	≤ 0.1 µM
–	–	0.1 to 0.5 µM	CNC(=O)c1cc(-c2cncc(-c3cc(NC(=O)c4ccnc(C(C)(F)F)c4)ccc3C)c2)ncn1 [Example 439]	–
–	–	0.1 to 0.5 µM	CNC(=O)c1cc(-c2cncc(-c3cc(NC(=O)c4ccnc(C(C)(F)F)c4)ccc3C)c2)ccn1 [Example 440]	–
–	–	≤ 0.1 µM	CNC(=O)c1cc(-c2cc(-c3cc(NC(=O)c4ccnc(C(C)(F)F)c4)ccc3C)ccn2)ccn1 [Example 441]	–
–	–	≤ 0.1 µM	CNC(=O)c1cc(-c2cncc(-c3cc(NC(=O)c4ccnc(C(C)(C)C#N)c4)ccc3C)c2)ccn1 [Example 442]	–
–	–	≤ 0.1 µM	CNC(=O)c1cc(-c2cc(-c3cc(NC(=O)c4ccnc(C(C)C)c4)ccc3C)ccn2)ccn1 [Example 443]	–
–	–	≤ 0.1 µM	CNC(=O)c1cc(-c2cncc(-c3cc(NC(=O)c4ccnc(C(C)C)c4)ccc3C)c2)ccn1 [Example 445]	–
–	–	0.1 to 0.5 µM	CNC(=O)c1cc(-c2cncc(-c3cc(NC(=O)c4ccnc(C(C)C)c4)ccc3C)c2)ncn1 [Example 446]	–
–	–	0.1 to 0.5 µM	Cc1ccc(NC(=O)c2ccnc(C(C)(C)F)c2)cc1-c1ccnc(-c2ccnc(C(=O)NCCO)c2)c1 [Example 448]	–
–	–	≤ 0.1 µM	CNC(=O)c1cc(-c2cc(-c3cc(NC(=O)c4ccnc(C(C)(C)F)c4)ccc3C)cc(OCCO)n2)ccn1 [Example 449]	–
–	–	0.1 to 0.5 µM	Cc1ccc(NC(=O)c2ccnc(C(C)(C)F)c2)cc1-c1ccnc(-c2ccnc(C(=O)NC3CN(C)C3)c2)c1 [Example 450]	–
–	–	0.1 to 0.5 µM	CNC(=N)c1cc(-c2cc(-c3cc(NC(=O)c4ccnc(C(C)(C)F)c4)ccc3C)ccn2)ccn1 [Example 452]	–
–	–	0.1 to 0.5 µM	Cc1ccc(NC(=O)c2ccnc(C(C)(C)F)c2)cc1-c1ccnc(-c2ccnc(C(=O)NCCN(C)C)c2)c1 [Example 453]	–
